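Five compound concentrations were applied to cells in 96-well plates for 48 hours; endpoints were derived by simple linear interpolation of the resulting dose-response curve. The concentration for full growth arrest is given as TGI.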
What was measured:
Assay in all cases: growth of human tumour cells (NCI), 48 h
[1] = system: 786-0 renal
[2] = system: A498 renal
[3] = system: A549 NSCLC
[4] = system: ACHN renal
[5] = system: CAKI-1 renal
[6] = system: CCRF-CEM leukemia
[7] = system: COLO 205 colon
[8] = system: DLD-1 colon
[9] = system: DMS 114 small cell lung
[10] = system: DMS 273 small cell lung
[11] = system: EKVX NSCLC
[12] = system: HCT-116 colon
[13] = system: HCT-15 colon
[14] = system: HL-60(TB) leukemia
[15] = system: HOP-62 NSCLC
[16] = system: HOP-92 NSCLC
[17] = system: KM12 colon
[18] = system: KM20L2 colon
[19] = system: LOX IMVI melanoma
[20] = system: M14 melanoma
[21] = system: M19-MEL melanoma
[22] = system: MOLT-4 leukemia
[23] = system: NCI-H23 lung
[24] = system: NCI-H460 lung
[25] = system: NCI-H522 lung
[26] = system: OVCAR-3 ovarian
[27] = system: OVCAR-4 ovarian
[28] = system: OVCAR-8 ovarian
[29] = system: RPMI-8226 leukemia
[30] = system: SF-268 CNS
[31] = system: SF-295 CNS
[32] = system: SF-539 CNS
[33] = system: SK-MEL-2 melanoma
[34] = system: SK-MEL-28 melanoma
[35] = system: SK-MEL-5 melanoma
[36] = system: SK-OV-3 ovarian
[37] = system: SN12C renal
[38] = system: SNB-19 CNS
[39] = system: SNB-75 CNS
[40] = system: SNB-78 CNS
[41] = system: SR leukemia
[42] = system: SW-620 colon
[43] = system: TK-10 renal
[44] = system: U251 CNS
[45] = system: UACC-257 melanoma
[46] = system: UACC-62 melanoma
[47] = system: UO-31 renal
[48] = system: XF 498 CNS
[49] = system: BT-549 breast
[50] = system: DU-145 prostate
[51] = system: HCC-2998 colon
[52] = system: HS 578T breast
[53] = system: HT29 colon
[54] = system: IGROV1 ovarian
[55] = system: K-562 leukemia
[56] = system: MALME-3M melanoma
[57] = system: MCF7 breast
[58] = system: MDA-MB-231 breast
[59] = system: MDA-MB-435
[60] = system: MDA-N
[61] = system: NCI-H226 lung
[62] = system: NCI/ADR-RES ovarian
[63] = system: OVCAR-5 ovarian
[64] = system: PC-3 prostate
[65] = system: RXF 393 renal
[66] = system: T-47D breast

SMILES: OC1(C(Sc2ccccc2)Sc2ccccc2)CCCCCC1
- TGI [1]: 64.9 µM
- TGI [2]: 85.2 µM
- TGI [3]: 89.5 µM
- TGI [4]: 64.5 µM
- TGI [5]: 74.9 µM
- TGI [6]: 77.3 µM
- TGI [7]: 57.8 µM
- TGI [8]: > 100 µM
- TGI [9]: 68.9 µM
- TGI [10]: 76.5 µM
- TGI [11]: 63.5 µM
- TGI [12]: 72.3 µM
- TGI [13]: 60.5 µM
- TGI [14]: 50.8 µM
- TGI [15]: 59.5 µM
- TGI [16]: 56.5 µM
- TGI [17]: > 100 µM
- TGI [18]: 9.27 µM
- TGI [19]: 40 µM
- TGI [20]: 49.2 µM
- TGI [21]: > 100 µM
- TGI [22]: > 100 µM
- TGI [23]: > 100 µM
- TGI [24]: 75.5 µM
- TGI [25]: 40.7 µM
- TGI [26]: 45.7 µM
- TGI [27]: > 100 µM
- TGI [28]: > 100 µM
- TGI [29]: 52.4 µM
- TGI [30]: > 100 µM
- TGI [31]: 66.2 µM
- TGI [32]: 64.9 µM
- TGI [33]: 41.2 µM
- TGI [34]: > 100 µM
- TGI [35]: 29.6 µM
- TGI [36]: 53.5 µM
- TGI [37]: 38.5 µM
- TGI [38]: 77.4 µM
- TGI [39]: > 100 µM
- TGI [40]: > 100 µM
- TGI [41]: 67 µM
- TGI [42]: > 100 µM
- TGI [43]: > 100 µM
- TGI [44]: 66.2 µM
- TGI [45]: 69.4 µM
- TGI [46]: 28.5 µM
- TGI [47]: 16.6 µM
- TGI [48]: 35.7 µM

SMILES: COc1ccc2nc3cccc([N+](=O)[O-])c3c(NCCC(=O)O)c2c1
- TGI [1]: > 10 µM
- TGI [2]: > 10 µM
- TGI [3]: > 10 µM
- TGI [4]: > 10 µM
- TGI [49]: > 10 µM
- TGI [5]: > 10 µM
- TGI [6]: > 10 µM
- TGI [7]: > 10 µM
- TGI [50]: > 10 µM
- TGI [11]: > 10 µM
- TGI [51]: > 10 µM
- TGI [12]: > 10 µM
- TGI [13]: > 10 µM
- TGI [14]: > 10 µM
- TGI [15]: > 10 µM
- TGI [16]: > 10 µM
- TGI [52]: > 10 µM
- TGI [53]: > 10 µM
- TGI [54]: > 10 µM
- TGI [55]: > 10 µM
- TGI [17]: > 10 µM
- TGI [19]: > 10 µM
- TGI [20]: > 10 µM
- TGI [56]: > 10 µM
- TGI [57]: > 10 µM
- TGI [58]: > 10 µM
- TGI [59]: > 10 µM
- TGI [60]: > 10 µM
- TGI [22]: > 10 µM
- TGI [61]: > 10 µM
- TGI [23]: > 10 µM
- TGI [24]: > 10 µM
- TGI [25]: > 10 µM
- TGI [62]: > 10 µM
- TGI [26]: > 10 µM
- TGI [27]: > 10 µM
- TGI [63]: > 10 µM
- TGI [28]: > 10 µM
- TGI [64]: > 10 µM
- TGI [29]: > 10 µM
- TGI [65]: > 10 µM
- TGI [30]: > 10 µM
- TGI [31]: > 10 µM
- TGI [32]: > 10 µM
- TGI [33]: > 10 µM
- TGI [34]: > 10 µM
- TGI [35]: > 10 µM
- TGI [36]: > 10 µM
- TGI [37]: > 10 µM
- TGI [38]: > 10 µM
- TGI [39]: > 10 µM
- TGI [41]: > 10 µM
- TGI [42]: > 10 µM
- TGI [66]: > 10 µM
- TGI [43]: > 10 µM
- TGI [44]: > 10 µM
- TGI [45]: > 10 µM
- TGI [46]: > 10 µM

SMILES: C=CC(C)(C)NC(C(=O)N1CCC[C@H]1c1nc(-c2nc(C(=O)OCC=C(C)C)c(C)o2)c(C)o1)C(C)C (stereo not given in full)
- TGI [1]: > 100 µM
- TGI [2]: > 100 µM
- TGI [3]: > 100 µM
- TGI [4]: > 68.1 µM
- TGI [49]: > 100 µM
- TGI [5]: 99.8 µM
- TGI [6]: > 100 µM
- TGI [7]: > 100 µM
- TGI [50]: > 100 µM
- TGI [11]: > 90.1 µM
- TGI [51]: > 100 µM
- TGI [12]: > 100 µM
- TGI [13]: > 95.5 µM
- TGI [14]: 71.6 µM
- TGI [15]: > 100 µM
- TGI [16]: > 100 µM
- TGI [52]: > 100 µM
- TGI [53]: > 86.8 µM
- TGI [54]: > 100 µM
- TGI [55]: > 100 µM
- TGI [17]: > 90.6 µM
- TGI [19]: > 74.5 µM
- TGI [20]: > 100 µM
- TGI [56]: > 100 µM
- TGI [57]: > 82.8 µM
- TGI [58]: > 100 µM
- TGI [59]: > 72 µM
- TGI [60]: 56.2 µM
- TGI [22]: > 100 µM
- TGI [61]: > 87.7 µM
- TGI [23]: > 100 µM
- TGI [24]: > 100 µM
- TGI [25]: > 100 µM
- TGI [62]: > 100 µM
- TGI [26]: > 100 µM
- TGI [27]: > 100 µM
- TGI [63]: > 100 µM
- TGI [28]: > 100 µM
- TGI [64]: > 100 µM
- TGI [29]: > 100 µM
- TGI [65]: > 91.4 µM
- TGI [30]: > 100 µM
- TGI [31]: > 74.8 µM
- TGI [32]: > 68.7 µM
- TGI [33]: > 73.4 µM
- TGI [34]: > 100 µM
- TGI [35]: > 72.7 µM
- TGI [36]: > 100 µM
- TGI [37]: > 72.2 µM
- TGI [38]: > 100 µM
- TGI [39]: > 100 µM
- TGI [41]: > 100 µM
- TGI [42]: > 100 µM
- TGI [66]: > 100 µM
- TGI [43]: > 100 µM
- TGI [44]: > 78.1 µM
- TGI [45]: > 100 µM
- TGI [46]: > 60.9 µM
- TGI [47]: > 65.1 µM

— PubChem BioAssay (NCI)
